Experimental data from patent USRE39591E1, “6-O-substituted ketolides having antibacterial activity” (Abbott Laboratories, priority 1996, dated 2007).
Values after ≈ are worked out from the molar mass of the structure shown.

Test system: up to 32 different microorganisms
Experiment: in vitro antibacterial activity (MIC), agar dilution on Brain Heart Infusion (BHI) agar with Steers replicator
Type: cell-based
Details: unit assumed
Summary of the method: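 Up to 32 strains were replicator-inoculated (1:100, or 1:10 for Micrococcus and Streptococcus) onto BHI agar plates holding serial compound dilutions and kept 20-24 h at 35-37° C. Plates were read visually against drug-free growth controls, with erythromycin A run alongside; MIC was the lowest concentration giving no growth, slight haze or sparse colonies.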

## CC[C@H]1OC(=O)[C@H](C)C(=O)[C@H](C)[C@@H](O[C@@H]2O[C@H](C)C[C@H](N(C)C)[C@H]2O)[C@@](C)(OCC#Cc2ccccc2)C[C@@H](C)C(=O)[C@H](C)[C@H]2NC(=O)O[C@@]21C [Example 249, Compound of Formula (IX): L is CO, T is NH, R is —CH2—C≡C-phenyl]
Organism code AA
  MIC: 0.1 µg/mL
Organism code BB
  MIC: 0.1 µg/mL
Organism code CC
  MIC: > 100 µg/mL
Organism code DD
  MIC: 0.2 µg/mL
Organism code EE
  MIC: 0.2 µg/mL
Organism code FF
  MIC: 0.1 µg/mL
Organism code GG
  MIC: > 100 µg/mL
Organism code HH
  MIC: 0.1 µg/mL
Organism code II
  MIC: 0.05 µg/mL
Organism code JJ
  MIC: 0.01 µg/mL
Organism code KK
  MIC: 0.02 µg/mL
Organism code LL
  MIC: 0.02 µg/mL
Organism code MM
  MIC: 100 µg/mL
Organism code NN
  MIC: 0.1 µg/mL
Organism code OO
  MIC: 0.01 µg/mL
Organism code PP
  MIC: 0.1 µg/mL
Organism code QQ
  MIC: 100 µg/mL
Organism code RR
  MIC: 0.39 µg/mL
Organism code SS
  MIC: > 100 µg/mL
Organism code TT
  MIC: > 100 µg/mL
Organism code UU
  MIC: 0.39 µg/mL
Organism code VV
  MIC: 0.1 µg/mL
Organism code WW
  MIC: 4 µg/mL
Organism code XX
  MIC: 0.03 µg/mL
Organism code YY
  MIC: 0.03 µg/mL
Organism code ZZ
  MIC: > 128 µg/mL
Organism code ZZA
  MIC: 0.25 µg/mL

## CCC1OC(=O)C(C)C(=O)C(C)C(OC2OC(C)CC(N(C)C)C2O)C(C)(OCC=Cc2cccc3ncccc23)CC(C)C(=O)C(C)C2NC(=O)OC12C (stereo not drawn) [Example 196, R is —CH2CH═CH-(5-quinolyl)]
Candida albicans CCH 442 (code TT)
  MIC: > 100 µg/mL
Enterococcus faecism ATCC 8043 (code II)
  MIC: 0.05 µg/mL (≈ 0.0653 µM)
Escherichia coli DC-2 (code SS)
  MIC: > 100 µg/mL
Escherichia coli JUHL (code QQ)
  MIC: > 100 µg/mL
Escherichia coli SS (code RR)
  MIC: 0.39 µg/mL (≈ 0.509 µM)
Micrococcus luteus ATCC 4698 (code PP)
  MIC: 0.1 µg/mL (≈ 0.131 µM)
Micrococcus luteus ATCC 9341 (code OO)
  MIC: 0.01 µg/mL (≈ 0.0131 µM)
Mycobacterium smegmatis ATCC 114 (code UU)
  MIC: 0.2 µg/mL (≈ 0.261 µM)
Nocardia Asteroides ATCC9970 (code VV)
  MIC: 0.1 µg/mL (≈ 0.131 µM)
Staphylococcus aureus 1775 (code GG)
  MIC: > 100 µg/mL
Staphylococcus aureus A-5278 (code CC)
  MIC: > 100 µg/mL
Staphylococcus aureus ATCC 6538P (code AA)
  MIC: 0.1 µg/mL (≈ 0.131 µM)
Staphylococcus aureus CMX 553 (code FF)
  MIC: 0.1 µg/mL (≈ 0.131 µM)
Staphylococcus aureus CMX 642A (code DD)
  MIC: 0.1 µg/mL (≈ 0.131 µM)
Staphylococcus aureus NCTC10649M (code EE)
  MIC: 0.1 µg/mL (≈ 0.131 µM)
Staphylococcus epidermidis 3519 (code HH)
  MIC: 0.2 µg/mL (≈ 0.261 µM)
Streptococcus agalactiae CMX 508 (code KK)
  MIC: ≤ 0.005 µg/mL
Streptococcus bovis A-5169 (code JJ)
  MIC: ≤ 0.005 µg/mL
Streptococcus pyogenes 930 (code MM)
  MIC: > 100 µg/mL
Streptococcus pyogenes EES61 (code LL)
  MIC: ≤ 0.005 µg/mL
Streptococcus pyogenes PIU 2548 (code NN)
  MIC: 0.2 µg/mL (≈ 0.261 µM)

## CC[C@H]1OC(=O)[C@H](C)C(=O)[C@H](C)[C@@H](O[C@@H]2O[C@H](C)C[C@H](N(C)C)[C@H]2O)[C@@](C)(OCCNCCCCc2ccccc2)C[C@@H](C)C(=O)[C@H](C)[C@H]2NC(=O)O[C@@]21C [Example 224]
Organism code AA
  MIC: 0.39 µg/mL (≈ 0.504 µM)
Organism code BB
  MIC: 0.2 µg/mL (≈ 0.258 µM)
Organism code CC
  MIC: > 100 µg/mL
Organism code DD
  MIC: 0.2 µg/mL (≈ 0.258 µM)
Organism code EE
  MIC: 0.2 µg/mL (≈ 0.258 µM)
Organism code FF
  MIC: 0.2 µg/mL (≈ 0.258 µM)
Organism code GG
  MIC: > 100 µg/mL
Organism code HH
  MIC: 0.39 µg/mL (≈ 0.504 µM)
Organism code II
  MIC: 0.01 µg/mL (≈ 0.0129 µM)
Organism code JJ
  MIC: 0.01 µg/mL (≈ 0.0129 µM)
Organism code KK
  MIC: ≤ 0.005 µg/mL
Organism code LL
  MIC: 0.01 µg/mL (≈ 0.0129 µM)
Organism code MM
  MIC: > 100 µg/mL
Organism code NN
  MIC: 0.2 µg/mL (≈ 0.258 µM)
Organism code OO
  MIC: 0.02 µg/mL (≈ 0.0258 µM)
Organism code PP
  MIC: 0.2 µg/mL (≈ 0.258 µM)
Organism code QQ
  MIC: 25 µg/mL (≈ 32.3 µM)
Organism code RR
  MIC: 0.2 µg/mL (≈ 0.258 µM)
Organism code SS
  MIC: 25 µg/mL (≈ 32.3 µM)
Organism code TT
  MIC: > 100 µg/mL
Organism code UU
  MIC: 3.1 µg/mL (≈ 4.01 µM)
Organism code VV
  MIC: 0.1 µg/mL (≈ 0.129 µM)
Organism code WW
  MIC: 4 µg/mL (≈ 5.17 µM)
Organism code XX
  MIC: 0.03 µg/mL (≈ 0.0388 µM)
Organism code YY
  MIC: 0.03 µg/mL (≈ 0.0388 µM)
Organism code ZZ
  MIC: > 128 µg/mL
Organism code ZZA
  MIC: 2 µg/mL (≈ 2.58 µM)
